These are literature values, as cited in patent US20250134829A1, “LOW-DOSE, STABLE-RELEASE TRANSDERMAL PREPARATION AND PATCH, AND METHOD FOR THEIR PRODUCTION” (PÉCSI TUDOMÁNYEGYETEM, priority 2022, published 2025).

Structures are written as SMILES.

In data set [1] the test system is capsaicin-sensitive sensory nerve endings. The settings on record: high dose (6-8%) of capsaicin locally.
In data set [2] the test system is patients suffering from low back pain. Particulars: topical nonivamide treatment.

Take `COc1cc(CNC(=O)CCCC/C=C/C(C)C)ccc1O` [capsaicin]: in data set [1], the “duration of disabling of the capsaicin-sensitive sensory nerve endings (desensitization)” value was 2-3 months.
For `CCCCCCCCC(=O)NCc1ccc(O)c(OC)c1` [nonivamide], the “plasma level of the neuropeptide somatostatin” value in data set [2] is recorded as “threefold increase”.
